# In patent US9765158B2, “Methods for preparation of fucose-linked site specific conjugates of proteins with toxins, adjuvants, detection labels and pharmacokinetic half life extenders” (Probiogen AG, priority 2011, dated 2017):
# What was measured:
# [1] = test system: Antibody expressing CHO cells carrying the RMD transgene; assay: Fucose feeding experiment: rescue of core-fucosylation of secreted antibody, PSA lectin blotting; format: cell-based, Chinese hamster; details: media and feeds supplemented with 0.03 mM; cells grown 12 days; supernatant lectin blot (FIG. 4)
# Method: Currently, Fucose analogs are not routinely used in cell culture and are thus still expensive. In order to identify the most cost efficient fucose analogue concentration, we needed to determine the minimum required amount of fucose analogue that was sufficient to completely rescue the fucosylation status of heterologously expressed antibodies secreted from RMD-co-expressing cells. Antibody expressing CHO cells carrying the RMD transgene were cultured in medium containing varying concentrations of fucose and fed with a feed mix supplemented with that same amount of fucose. Cells were grown for 12 days before harvesting the cell culture supernatant. The supernatants were analysed by lectin blotting using biotinylated PSA lectin (pisum sativum) that specifically recognizes the alpha-1,6-linked core-fucose. Lectin blotting was conducted using the Vecstatin Elite ABC Kit (Vector Labs, USA) according to the manufacturers instructions.
# avidin = avidin (Gallus gallus, UniProt P02701); details: avidin-biotin complex; cited from earlier work
# Chain of avidin (P02701 25-152, species assumed): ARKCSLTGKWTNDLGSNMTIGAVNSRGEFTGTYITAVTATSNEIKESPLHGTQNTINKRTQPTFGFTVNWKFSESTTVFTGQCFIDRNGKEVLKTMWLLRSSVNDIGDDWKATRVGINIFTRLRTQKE
SMILES,rescue of core-fucosylation [1],Ka (avidin) [M⁻¹]
C[C@H](O)[C@@H](O)[C@@H](O)[C@H](O)C=O [Fucose],almost complete rescue,–
O=C(O)CCCC[C@@H]1SC[C@@H]2NC(=O)N[C@@H]21 [biotin],–,1015
